In one data set the test system is Candida albicans. Put plainly: Antimicrobial activity against Candida albicans. Format: functional, organism-based.
Data set [1] can be described thus: Antiproliferative activity against green monkey kidney cells. It counts as cell-based. The note with it: chlorocebus aethiops.
A further data set concerns HCT-116. Put plainly: Antitumor activity against human HCT116 cells. It counts as functional, cell-based.

The source made the active and inactive calls. No cut-off for these calls is given here.

For the compound `CO[C@@H]1[C@@H]2O[C@H](C[C@@H](O)[C@H](C)[C@@H](O)/C(C)=C/[C@H](C)[C@H](O)/C=C/CC(O)CC(C(NC(=O)CC(C)CCC(C)C(O)/C(C)=C/C(C)[C@@H](O)[C@H](NC(=O)/C=C/C(C)(C)C(=O)[C@@H](C)[C@@H](O)C(C)C)[C@@H](O)C(C)C)C(C)O)OC(=O)C(C(O)C(=O)O)NC(=O)/C=C/C=C/C=C/C=C/C=C/[C@H]2OC)C[C@@H]1C` (stereo partly drawn) [MIRABILIN MACROLIDE LACTUM], in the data set on Candida albicans, the result was inactive. Also, in data set [1], the Activity result is “Not Active”. Moreover, the IC50 – broadly, the concentration needed to halve the response being measured – with HCT-116 worked out at 270 nM.

For the origin of these results see ChEMBL document CHEMBL1144817, “Mirabalin, [corrected] an antitumor macrolide lactam from the marine sponge Siliquariaspongia mirabilis” (J Nat Prod, 2008).
